Assay results taken from patent publication US20230339981A1, “KRAS G12D MODULATING COMPOUNDS” (priority 2022, published 2023).
pEC50, pIC50: −log10 of the molar value.

Assays:
GDP-loaded KRAS G12D = GDP-loaded KRAS G12D (Homo sapiens (Human), UniProt P01116, G12D); assay: KRAS G12D (GDP) biochemical assay (TR-FRET probe displacement); assay type: binding; conditions: 2 hours
Procedure, shortened: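 Compound pre-incubated 30 min with GDP-loaded KRAS G12D in 50 mM Hepes pH 7.4, 150 mM NaCl, 5 mM MgCl2, 0.005% Tween-20, then Eu-streptavidin and TR-FRET probe added. After 2 h at room temperature, TR-FRET ratio read; IC50 is 50% ratio decrease, sigmoidal fit.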

AsPC-1 (KRAS G12D) cells = assay: 3D cell viability assay (spheroids, CellTiter-Glo 3D); assay type: cell-based; conditions: Homo sapiens, ASPC1, 96 h, AsPC-1 cells, 3D spheroids, 4 days
Procedure, shortened: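 AsPC-1 cells (1000/well) in DMEM with 10% FBS formed spheroids over 3 days at 37 °C in ultra-low attachment plates, then were treated with 1:3 serial dilutions for 4 days. Viability read by CellTiter-Glo 3D luminescence; EC50 as concentration giving 50% signal decrease, sigmoidal fit.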

GP2D (KRAS G12D) cells = assay: 2D cell viability assay (CellTiter-Glo); assay type: cell-based; conditions: GP2d, 96 h, 4 days
Procedure, shortened: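 GP2D (KRAS G12D) cells, 1000/well in RPMI + 10% FBS, were plated onto compound (1:3 DMSO series) and grown 4 days at 37 °C, 5% CO2 in 2D. CellTiter-Glo luminescence was read; EC50 is the concentration giving 50% signal decrease, from sigmoidal fit.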

Chain of GDP-loaded KRAS G12D (P01116-2 other isoform, or with tags, fused parts or gaps G12D): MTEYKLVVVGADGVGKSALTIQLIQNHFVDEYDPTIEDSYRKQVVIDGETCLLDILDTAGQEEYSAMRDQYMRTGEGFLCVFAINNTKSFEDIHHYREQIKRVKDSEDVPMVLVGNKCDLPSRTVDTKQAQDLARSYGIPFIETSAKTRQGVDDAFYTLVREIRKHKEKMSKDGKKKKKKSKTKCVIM

Row | Structure (SMILES) | pIC50 (GDP-loaded KRAS G12D) | pEC50 (AsPC-1 (KRAS G12D) cells) | pEC50 (GP2D (KRAS G12D) cells)
1 | C#Cc1c(F)ccc2cc(O)cc(-c3nc4c5c(nc(OC[C@@]67CCCN6CC(OC(F)(F)F)C7)nc5c3F)N3C[C@H]5CC[C@H](N5)[C@H]3CC4)c12 (stereo partly drawn) [Example 139, 5-ethynyl-6-fluoro-4-((5aR,6S,9R)-1-fluoro-12-((cis-2-(trifluoromethoxy)tetrahydro-1H-pyrrolizin-7a(5H)-yl)methoxy)-4,5,5a,6,7,8,9,10-octahydro-3,10a,11,13,14-pentaaza-6,9-methanonaphtho[1,8-ab]heptalen-2-yl)naphthalen-2-ol] | 10.00 | 8.38 | 9.22
2 | C#Cc1c(F)ccc2cc(O)cc(-c3nc4c5c(nc(OCC6(CN7CCC(CC(F)(F)F)CC7)CC6)nc5c3F)N3C[C@H]5CC[C@H](N5)[C@H]3CC4)c12 [Example 167, 5-ethynyl-6-fluoro-4-((5aR,6S,9R)-1-fluoro-12-((1-((4-(2,2,2-trifluoroethyl)piperidin-1-yl)methyl)cyclopropyl)methoxy)-4,5,5a,6,7,8,9,10-octahydro-3,10a,11,13,14-pentaaza-6,9-methanonaphtho[1,8-ab]heptalen-2-yl)naphthalen-2-ol] | > 10.00 | 7.49 | 9.15
3 | C#Cc1c(F)ccc2cc(O)cc(-c3nc4c5c(nc(OC[C@@]67CCCN6[C@H](COc6ncccc6OC(F)(F)F)CC7)nc5c3F)N3C[C@H]5CC[C@H](N5)[C@H]3CC4)c12 [Example 160, 5-ethynyl-6-fluoro-4-((5aR,6S,9R)-1-fluoro-12-(((3S,7aS)-3-(((3-(trifluoromethoxy)pyridin-2-yl)oxy)methyl)tetrahydro-1H-pyrrolizin-7a(5H)-yl)methoxy)-4,5,5a,6,7,8,9,10-octahydro-3,10a,11,13,14-pentaaza-6,9-methanonaphtho[1,8-ab]heptalen-2-yl)naphthalen-2-ol] | 9.70 | 7.80 | 8.85
4 | C#Cc1c(F)ccc2cc(O)cc(-c3nc4c5c(nc(OC[C@@]67CCCN6[C@H](Cn6ccnn6)CC7)nc5c3F)N3C[C@H]5CC[C@H](N5)[C@H]3CO4)c12 [Example 49, 4-((5aS,6S,9R)-12-(((3S,7aS)-3-((1H-1,2,3-triazol-1-yl)methyl)tetrahydro-1H-pyrrolizin-7a(5H)-yl)methoxy)-1-fluoro-5a,6,7,8,9,10-hexahydro-5H-4-oxa-3,10a,11,13,14-pentaaza-6,9-methanonaphtho[1,8-ab]heptalen-2-yl)-5-ethynyl-6-fluoronaphthalen-2-ol] | 9.70 | 6.85 | 7.43
5 | C#Cc1c(F)ccc2cc(O)cc(-c3nc4c5c(nc(OC[C@@]67CCCN6C[C@H](F)C7)nc5c3F)N3C[C@H]5CC[C@H](N5)C3C[C@@H]4C)c12 (stereo in doubt) [Example 94, 5-ethynyl-6-fluoro-4-((4S,5aS,6S,9R)-1-fluoro-12-(((2R,7aS)-2-fluorotetrahydro-1H-pyrrolizin-7a(5H)-yl)methoxy)-4-methyl-4,5,5a,6,7,8,9,10-octahydro-3,10a,11,13,14-pentaaza-6,9-methanonaphtho[1,8-ab]heptalen-2-yl)naphthalen-2-ol] | 10.00 | 8.66 | 9.22
6 | C#Cc1c(F)ccc2cccc(-c3nc4c5c(nc(OC[C@@]67CCCN6C[C@H](F)C7)nc5c3F)N3C[C@H]5CC[C@H](N5)C3C[C@@H]4C)c12 (stereo in doubt) [Example 93, (4S,5aS,6S,9R)-2-(8-ethynyl-7-fluoronaphthalen-1-yl)-1-fluoro-12-(((2R,7aS)-2-fluorotetrahydro-1H-pyrrolizin-7a(5H)-yl)methoxy)-4-methyl-4,5,5a,6,7,8,9,10-octahydro-3,10a,11,13,14-pentaaza-6,9-methanonaphtho[1,8-ab]heptalene] | 8.60 | 7.09 | 7.58
